Among the data in patent EP0576227A2, “2'-Deoxy-2',2'-difluoro(2,6,8-substituted) purine nucleosides having anti-viral and anti-cancer activity and intermediates” (ELI LILLY AND COMPANY, priority 1992, dated 1993) are inhibition and IC50 values, retold here.

Assay [1] has as its system Human Cytomegalovirus (HCMV) strain AD169. Briefly: Human Cytomegalovirus Test (plaque inhibition in WI-38 cells). The class given is cell-based. The note with it: read-out: Percent Plaque Inhibition at Specified µg/ml conc. The method, then:
WI-38 cells (American Type Culture Collection; CCL-35) were seeded into 24-well plates in MEM media (GIBCO) supplemented with 10% fetal bovine serum and penicillin/streptomycin. The plates wre incbated at 37°C, in 5 percent carbon dioxide in a humidified incubator for 3 days. Human Cytomegalovirus (HCMV) strain AD169 (American Type Culture Collection) was added to each well (40 plaque forming unites in 100 µl of media) and the virus was allowed to adsorb to the cells for 2 hours at room temperature. The compound of Example 5 was dissolved in 100 percent dimethylsulfoxide at a concentration of 20 mgs/ml and diluted with media to yield final concentrations of 50, 25, 12.5, 6.25, 3.13, 1.6, 0.8, 0.4, 0.2, and 0.1 µg/ml in one set of experiments and 32, 10, 3.2, 1, and 0.32 µg/ml in another set of experiments. Each concentration was done in duplicate. In all experiments, Cytovene (DHPG) was used as a positive control.
The infected cells were incubated for 10 days at 37°C, 5 percent carbon dioxide, in an humidified incubator without changes of media. After incubation, the cells were fixed for at least 15 minutes with 10 percent formalin and rinsed with water. After rinsing, the cells were stained for at least 15 minutes with crystal violet and allowed to dry. HCMV induced plaques were counted with the aid of an iverted microscope. The number of viral plaques appearing in cells treated with each concentration of the Example 5 compound was compared to the number of viral plaques in cells left untreated ("no-drug control") and the percent inhibition of viral plaque formation was calculated. The concentration of the Example 5 compound required to inhibit viral plaque formation by 50 percent was determined using linear regression analysis.

The subject of the next assay is Hepatitis B Virus. Briefly: Hepatitis B Virus Test (HBV DNA in supernatant of Hep10A cells, PCR / Southern blot). The class given is cell-based, human Hepatitis B Virus (HBV). The note with it: 240 h. The source says:
Plasmids were constructed using standard recombinant DNA techniques; see Sambrook, J., et al., Molecular Cloning: A Laboratory Manual, 2nd Edition (1989), Cold Spring Harbor Press, Cold Spring Harbor, NY. Plasmid pTHBV contains a head-to-tail dimer of the human Hepatitis B Virus (HBV) genome, subtype adw, clone into the EcoR I site of pUC9. […] and subcloned into the Sal I site of pTHBV after a two base fill-in reaction with the Klenow fragment of E. coli DNA polymerase I.
HepG2 cells (human hepatoblastoma, ATCC HB 8065) were routinely passaged in growth medium consisting of EARLE'S minimal essential media (Grand Island Biological Company (GIBCO) Bethesda Research Laboratories (BRL), Life Technologies, Inc., Gathersburg, MD.) supplemented with sodium pyruvate, 10 percent fetal bovine serum, 100 units/ml penicillin, and 100 µg/ml streptomycin. Hep10A cells were derived from HepG2 cells. Briefly, HepG2 cells were seeded into 60 mm culture dishes in growth medium, and when approximately 50 percent confluent, were transfected with pTHBVneo using the calcium phosphate precipitation method described by Graham, F.L. and Van der Eb in Virology, 52, p 456-467 (1973). After four hours of post-transfection, the cells were shocked with 10 percent dimethylsulfoxide and 20 percent glucose for 5 minutes, after which they were allowed to recover for 24 horus. The transfected cells were passaged and reseeded in the presence of growth medium containing 800 µg/ml geneticin. The cells were monitored for the appearance of geneticin resistant cells. A genecitin resistant cell line was established, and routinely passaged in growth medium containing 400 µg/ml geneticin. This cell line will be referred to as Hep10A.
Hep10A cells were seeded into 96-well microtiter plates at a density of approximately 50,000 cells per well, allowed to grow to confluence, and maintained at confluence for 2 to 4 days to allow Hepatitus B Virus derivative HBV DNA levels to stabilize; see Sells, M.A., et al., J. Virol., 62, p 2836-2844 (1987) and Korba, B.E., et al., Antiviral Res., 15, p 217-228 (1991). At this time, cells were treated with 2'-deoxy-2'-fluoroarabino-5-iodouridine (FIAU) and the compound of Example 5 for 10 days, with daily changes of media containing fresh drug. FIAU was used as a positive control. On day 10, culture supernatant samples were taken and stored at 4°C until needed. PCR analysis was performed on supernatant samples using appropriate primers to amplify a 477 base pair fragment from the "a" determinant of the surface antigen gene of HBV subtype adw. Following eletrophoresis through agarose gels, the DNA was transferred to nylon membranes (Optiblot™, IBI, New Haven, CT) by capillary action (Southern, 1975) using 1X saline sodium citrate (SSC) (1X SSC=0.15 M NaCl, 0.015 M sodium citrate). After baking in vacuo for 30 minutes, the blots were hybridized for 15 to 18 hours to 1x10⁶ cpm/ml of […] the method of random priming (Feinberg and Vogelstein, 1983). Hybridization was carried out at 42°C using 50 percent N,N-dimethylformamide, 6X saline sodium phosphate ethylenediamine tetraacetic acid (SSPE), 1.0 percent sodium dodyl sulfate (SDS), and 50 µg/ml salmon sperm DNA (1X SSPE=0.18 M NaCl; […] NaH₂PO₄, pH 7.4; 1 mmol ethylene diamine tetraacetic acid (EDTA)). The hybridized blots were washed as follows: twice in 2X SSC/0.1 percent SDS at room temperature for 1 hour, once in 0.1X SSC/0.1 percent SDS at room temperature for 30 minutes, and once in 0.1x SSC/0.1 percent supplemented with SDS at 65°C for 15 minutes. The filters were exposed to x-ray film and quantitated by densitometry.

The mark [2] stands for this setting: read-out: Percent Inhibition at Specified µg/ml conc.

`CNc1nc(N)nc2c1ncn2[C@@H]1O[C@H](CO)[C@@H](O)C1(F)F` [Example 5, 2-deoxy-2,2-difluoro-D-ribofuranosyl-1-β-(2-amino-6-methylaminopurine)]: the inhibition at 0.2 µg/mL in assay [1] (Human betaherpesvirus 5, AD169, 240 h, 0.2 µg/ml, WI-38 cells, 10 days) is 24%. Also, the inhibition at 0.4 µg/mL in assay [1] (Human betaherpesvirus 5, AD169, 240 h, 0.4 µg/ml, WI-38 cells, 10 days) was 17.2%. In assay [1] (Human betaherpesvirus 5, AD169, 240 h, 0.8 µg/ml, WI-38 cells, 10 days), the inhibition at 0.8 µg/mL amounted to 38%. The inhibition at 1.6 µg/mL in assay [1] (Human betaherpesvirus 5, AD169, 240 h, 1.6 µg/ml, WI-38 cells, 10 days) was found to be 41.4%. Moreover, the inhibition at 6.25 µg/mL in assay [1] (Human betaherpesvirus 5, AD169, 240 h, 6.25 µg/ml, WI-38 cells, 10 days) was determined as 86.2%. Further, in assay [1] (Human betaherpesvirus 5, AD169, 240 h, 12.5 µg/ml, WI-38 cells, 10 days), the inhibition at 12.5 µg/mL is 81%. Further, in assay [1] (Human betaherpesvirus 5, AD169, 240 h, 25 µg/ml, WI-38 cells, 10 days), the inhibition at 25 µg/mL stood at 89.6%. Besides, the inhibition at 3.12 µg/mL in assay [1] (Human betaherpesvirus 5, AD169, WI-38, 240 h) turned out to be 62%. Further, in the assay with Hepatitis B Virus (setting [2]), the inhibition at 0.1 µg/mL was found to be 56.9%, the inhibition at 1 µg/mL came to 81.9%, the inhibition at 10 µg/mL amounted to 84.6% and the inhibition at 100 µg/mL was 83.9%. In addition, in the assay with Hepatitis B Virus (read-out: concentration required to inhibit HBV DNA replication by 50 percent), the IC50 was under 0.1 µg/mL.
